Data taken from US4570005A, “Process for the preparation of 2-arylpropyl ether or thioether derivatives” (priority 1980, dated 1986).
Where two headings read alike, the source gives them in different places.

Tests used:
[1] = test system: resistant green rice leafhopper (collected at Nakagawara); assay: Test 3: Effect on Resistant Green Rice Leafhopper (collected at Nakagawara); assay type: in vivo, Nephotettix cincticeps Uhler (Green rice leafhopper); conditions: Nephotettix cincticeps, 24 h, read-out: Mortality (%), Green Rice Leafhopper Collected at Nakagawara
Procedure: (§1) To a mixture of 20 parts of the compound of the present invention and 20 parts of Sorpol SM-200 (registered tradename for the product supplied by Toho Chemical Industrial Co., Ltd.) was added 60 parts of xylol, and the mixture was suffciently blended. The obtained emulsifiable concentrate was diluted at a predetermined concentration with distilled water, and the obtained dilution was used.
(§2) Seedlings (having 2 to 3 leaves) of paddy rice were hydroponically cultured in a pot having a diameter of 5 cm. A chemical dilution having a concentration of 100 or 20 ppm, prepared in the same manner as described in Test 1, was applied with a sprayer at a rate of 3 ml per pot. The treated seedlings were air-dried and covered with a metal net cylinder, and female adults of resistant green rice leafhopper (collected at Nakagawara) and sensitive green rice leafhopper (collected at Chigasaki) were set, respectively, free in the pot at a density of 10 adults per pot. After 24 hours, the numbers of killed and living adults were counted and the mortality was calculated. The test was made on three pots and the average value was calculated.

[2] = test system: sensitive green rice leafhopper (collected at Chigasaki); assay: whole plant or invertebrate; assay type: in vivo; conditions: Nephotettix cincticeps, read-out: Mortality (%), Green Rice Leafhopper Collected at Chigasaki
Procedure: as §1, §2

[3] = Test 9: Toxicity Test (acute oral toxicity, mice); conditions: mouse, in vivo, po
Procedure: A predetermined amount of a solution or suspension of a test compound in corn oil was orally administered to male mice having a body weight of 19 to 23 g (0.2 ml per 10 g of the body weight). After 7 days, the number of killed mice was counted and the influences on the mice were examined.

tobacco cutworm = assay: Test 1: Effect on Tobacco Cutworm (leaf immersion), mortality after 24 hours; assay type: in vivo; conditions: second-instar larvae, 25° C
Procedure: as §1
An emulsifiable concentrate of a test compound prepared according to the method described in Formulation Example 1 was diluted to a concentration of 100 or 20 ppm. Sweet-potato leaves were immersed in the dilution for 10 seconds, air-dried and placed in a plastic cup having a diameter of 10 cm. Then second-instar larvae of tobacco cutworm were set free in the cup. The cup was allowed to stand still in a thermostat chamber maintained at 25° C. After 24 hours, the numbers of killed and living larvae were counted and the mortality was calculated. The obtained result was expressed by an average value obtained from the mortality calculated in three test cups.

[4] = sensitive female adults, 24 hours
[5] = 100 ppm, sensitive female adults, 24 hours

| SMILES | mortality at 20 ppm [1] | mortality at 100 ppm [1] | mortality at 20 ppm [2, 4] | mortality at 100 ppm [2, 5] | LD50 at 168 h [3] | mortality at 20 ppm (tobacco cutworm) | mortality at 100 ppm (tobacco cutworm) | mortality at 100 ppm ([2]; 24 h) |
| --- | --- | --- | --- | --- | --- | --- | --- | --- |
| COc1ccc(Oc2cccc(COCC(C)(C)c3ccc(Cl)cc3)c2)cc1 [Compound 34, 3-(4-Methoxyphenoxy)benzyl 2-(4-chlorophenyl)-2-methylpropyl ether] | 100% | 100% | 90% | 100% | > 500 mg/kg |  |  |  |
| CC=C(C)c1ccc(C(C)(C)COCc2cccc(Oc3ccccc3)c2)cc1 [Compound 111, 3-Phenoxybenzyl 2-[4-(2-buten-2-yl)phenyl]-2-methylpropyl ether] |  |  |  |  | > 500 mg/kg |  |  |  |
| Cc1cccc(Oc2cccc(COCC(C)(C)c3ccc(Cl)cc3)c2)c1 [Compound 26, 3-(3-Methylphenoxy)benzyl 2-(4-chlorophenyl)-2-methylpropyl ether] | 85% | 100% | 60% | 100% | > 500 mg/kg |  |  |  |
| CCOCCOc1ccc(C(C)(C)COCc2cccc(Oc3ccccc3)c2)cc1 [Compound 89, 3-Phenoxybenzyl 2-[4-(2-ethoxyethoxy)phenyl]-2-methylpropyl ether] |  |  |  |  | > 500 mg/kg |  |  |  |
| COc1ccc(C(C)(C)COCc2cccc(Oc3ccc(F)cc3)c2)cc1 [Compound 32, 3-(4-Fluorophenoxy)benzyl 2-(4-methoxyphenyl)-2-methylpropyl ether] | 100% | 100% | 100% | 100% | > 500 mg/kg |  |  |  |
| CC(C)(COCc1cccc(Oc2ccccc2)c1)c1ccc(C#N)cc1 [Compound 54, 3-Phenoxybenzyl 2-(4-cyanophenyl)-2-methylpropyl ether] |  |  |  |  | > 500 mg/kg | 100% | 100% |  |
| CC(C)(COCc1cccc(Oc2ccc(F)cc2)c1)c1ccccc1 [Compound 28, 3-(4-Fluorophenoxy)benzyl 2-phenyl-2-methylpropyl ether] | 90% | 100% | 75% | 100% | > 500 mg/kg |  |  |  |
| C=C(C)c1ccc(C(C)(C)COCc2cccc(Oc3ccccc3)c2)cc1 [Compound 87, 3-Phenoxybenzyl 2-(4-isopropenylphenyl)-2-methylpropyl ether] |  |  |  |  | > 500 mg/kg |  |  |  |
| CC(C)(COCc1cccc(Oc2ccccc2)c1)c1ccc(C(=O)OCC(F)(F)F)cc1 [Compound 106, 3-Phenoxybenzyl 2-[4-(2,2,2-trifluoroethoxycarbonyl)-phenyl]-2-methylpropylether] |  |  |  |  | > 500 mg/kg |  |  |  |
| COCc1ccc(C(C)(C)COCc2cccc(Oc3ccccc3)c2)cc1 [Compound 80, 3-Phenoxybenzyl 2-(4-methoxymethylphenyl)-2-methylpropyl ether] |  |  |  |  | > 500 mg/kg |  |  |  |
| C=C(Cl)c1ccc(C(C)(C)COCc2cccc(Oc3ccccc3)c2)cc1 [Compound 102, 3-Phenoxybenzyl 2-[4-(1-chlorovinyl)phenyl]-2-methylpropyl ether] |  |  |  |  | > 500 mg/kg |  |  |  |
| COc1ccc(Oc2cccc(COCC(C)(C)c3ccc(Br)cc3)c2)cc1 [Compound 40, 3-(4-Methoxyphenoxy)benzyl 2-(4-bromophenyl)-2-methylpropyl ether] | 70% | 100% | 50% | 100% | > 500 mg/kg |  |  |  |
| CC(C)(COCc1cccc(Oc2ccc(Br)cc2)c1)c1cccc(C(F)(F)F)c1 [Compound 42, 3-(4-Bromophenoxy)benzyl 2-(3-trifluoromethylphenyl)-2-methylpropyl ether] | 100% | 100% | 95% | 100% | > 500 mg/kg |  |  |  |
| CC(C)c1ccc(C(C)(C)COCc2cccc(Oc3ccccc3)c2)cc1 [Compound 63, 3-Phenoxybenzyl 2-(4-isopropylphenyl)-2-methylpropyl ether] | 100% | 100% | 95% | 100% | > 500 mg/kg |  |  |  |
| COCOc1ccc(C(C)(C)COCc2cccc(Oc3ccccc3)c2)cc1 [Compound 83, 3-Phenoxybenzyl 2-(4-methoxymethoxyphenyl)-2-methylpropyl ether] |  |  |  |  | > 500 mg/kg | 100% | 100% |  |
| Cc1cccc(C(C)(C)COCc2cccc(Oc3ccc(F)cc3)c2)c1 [Compound 36, 3-(4-Fluorophenoxy)benzyl 2-(3-methylphenyl)-2-methylpropyl ether] | 90% | 100% | 70% | 95% | > 500 mg/kg |  |  |  |
| C=C(CC)c1ccc(C(C)(C)COCc2cccc(Oc3ccccc3)c2)cc1 [Compound 110, 3-Phenoxybenzyl 2-[4-(1-buten-2-yl)phenyl]-2-methylpropyl ether] |  |  |  |  | > 500 mg/kg |  |  |  |
| CC(C)(COCc1cccc(Oc2cccc(Cl)c2)c1)c1ccc(Cl)cc1 [Compound 10, 3-(3-Chlorophenoxy)benzyl 2-(4-chlorophenyl)-2-methylpropyl ether] | 100% | 100% | 100% | 100% | > 500 mg/kg |  |  |  |
| CC(C)(COCc1cccc(Oc2ccccc2)c1)c1ccc(OC(Cl)=C(Cl)Cl)cc1 [Compound 92, 3-Phenoxybenzyl 2-[(1,2,2-trichlorovinyloxy)phenyl]-2-methylpropyl ether] |  |  |  |  | > 500 mg/kg | 90% | 100% |  |
| CCOCOc1ccc(C(C)(C)COCc2cccc(Oc3ccccc3)c2)cc1 [Compound 81, 3-Phenoxybenzyl 2-(4-ethoxymethoxyphenyl)-2-methylpropyl ether] |  |  |  |  | > 500 mg/kg | 90% | 100% |  |
| CC(C)=Cc1ccc(C(C)(C)COCc2cccc(Oc3ccccc3)c2)cc1 [Compound 91, 3-Phenoxybenzyl 2-[4-(2-methyl-1-propenyl)phenyl]-2-methylpropyl ether] | 100% | 100% | 100% | 100% | > 500 mg/kg |  |  |  |
| COc1ccc(Oc2cccc(COCC(C)(C)c3ccc(OC)cc3)c2)cc1 [Compound 27, 3-(4-Methoxyphenoxy)benzyl 2-(4-methoxyphenyl)-2-methylpropyl ether] | 70% | 100% | 50% | 100% | > 500 mg/kg |  |  |  |
| CNC(=O)Oc1cccc(C)c1 [Comparative Compound (e), m-tolyl-N-methylcarbamate, reference compound] |  |  |  |  | 220 mg/kg |  |  | 80% |
| CC(C)(COCc1cccc(Oc2ccccc2)c1)c1ccc(OC2CCCCC2)cc1 [Compound 72, 3-Phenoxybenzyl 2-(4-cyclohexyloxyphenyl)-2-methylpropyl ether] | 80% | 100% | 65% | 100% | > 500 mg/kg |  |  |  |
| COc1ccc(Oc2cccc(COCC(C)(C)c3ccc(C)cc3)c2)cc1 [Compound 44, 3-(4-methoxyphenoxy)benzyl 2-(4-methylphenyl)-2-methylpropylether] | 95% | 100% | 80% | 100% | > 500 mg/kg |  |  |  |
| COc1ccc(C(C)(C)COCc2cccc(Oc3ccccc3)c2)cc1OC [Compound 88, 3-Phenoxybenzyl 2-(3,4-dimethoxyphenyl)-2-methylpropyl ether] | 80% | 100% | 60% | 100% | > 500 mg/kg |  |  |  |
| CC(C)c1ccc(C(C)(C)COCc2cccc(Oc3ccc(F)cc3)c2)cc1 [Compound 77, 3-(4-Fluorophenoxy)benzyl 2-(4-isopropylphenyl)-2-methylpropyl ether] | 85% | 100% | 70% | 100% | > 500 mg/kg |  |  |  |
| CC(C)(COCc1cccc(Oc2ccccc2)c1)c1ccc(-c2ccccc2)cc1 [Compound 68, 3-Phenoxybenzyl 2-(4-biphenyl)-2-methylpropyl ether] | 100% | 100% | 100% | 100% | > 500 mg/kg |  |  |  |
